Data published in patent publication US20250289810A1, “Compounds As NLRP3 Inflammasome Inhibitors And Their Use As Medicaments” (MAM-AGE S.R.L., priority 2022, published 2025).
Entries after “also recorded” stand apart in the source; their conditions may differ.

What was measured:
[1] = system: B16-F10cytLUC melanoma cells; test: Tumor growth of B16-F10cytLUC melanoma cells inoculated subcutaneously in C57BL/6 mice; type: in vivo; conditions: 25 mg/Kg intraperitoneal thrice weekly
Protocol: A total of 1×10^6 B16-F10 melanoma cells transfected with cytluc (B16-F10cytLUC) were subcutaneously inoculated into females, 6- to 8-week-old C57BL/6 mice. Tumor growth was monitored daily, and tumor volumes were measured every other day with calipers using the following equation: Volume=π/6×(a×b2), where “a” is the major diameter and “b” is the minor diameter. As soon as the mass was palpable, mice were randomly divided (5 mice per group) into the treatment groups and the control group, with 5 mice per group. For NLRP3 inflammasome inhibition, mice were intraperitoneal injected with selected molecules thrice weekly at 25 mg/Kg; control mice received equal volumes of DMSO.
Luciferase luminescence was followed by a total body luminometer (IVIS Lumina, Caliper-PerkinElmer).

B16-F10 cells = test: Transwell co-culture of peritoneal macrophages and B16-F10 cells (tumor microenvironment); type: cell-based; conditions: macrophages: LPS 1 μg/mL 2 hours, compound 1 μM 30 minutes, ATP 1 hour; 48 h
Protocol: (§1) Co-culture of peritoneal macrophages and B16-F10 cells were performed using Transwell chambers with 0.4-μm pores on the membranes (Corning, Corning, NY, USA). Peritoneal macrophages and B16-F10 cells were cultured in the lower and upper compartments of the Transwell chamber, respectively, for 48 h. Peritoneal macrophages were seeded at a density of 2×10^5 cells and treated with LPS (1 μg/mL) for 2 hours, then DMSO or compound 4 (1 μM) of Formula (II) for 30 minutes and finally stimulated with ATP for 1 hour. B16-F10 cells were seeded at a density of 2×10^3 cells each well.
as §1, with “compounds of Formula (III)” for “compound 4”, “μM)” for “μM) of Formula (II)”

AIM2 inflammasome = target: T1, AIM2 inflammasome (Mus musculus, UniProt Q91VJ1); test: AIM2 inflammasome activation in BMDM transfected with Poly(dA:dT) (IL-1β secretion); type: cell-based
T1 construct: non-NLR AIM2 inflammasome by transfecting BMDM with the dsDNS analogue Poly (dA:dT); endogenous in cells; host or cells: mouse BMDM transfected with poly(dA:dT)
T1 sequence (Q91VJ1 1-354): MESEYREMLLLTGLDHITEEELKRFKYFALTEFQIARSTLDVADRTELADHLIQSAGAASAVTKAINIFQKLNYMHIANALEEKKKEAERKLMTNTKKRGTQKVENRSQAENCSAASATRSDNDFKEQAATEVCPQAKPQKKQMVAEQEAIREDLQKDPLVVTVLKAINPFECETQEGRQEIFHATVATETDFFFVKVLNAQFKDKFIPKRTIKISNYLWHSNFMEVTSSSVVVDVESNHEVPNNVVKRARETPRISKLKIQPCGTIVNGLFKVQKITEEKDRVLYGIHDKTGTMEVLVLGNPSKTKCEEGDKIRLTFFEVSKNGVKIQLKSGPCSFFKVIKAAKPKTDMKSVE
Protocol: (§2) The selectivity of compound 4 as an inhibitor of NLRP3 was then evaluated with respect to NLRC4 and absent in melanoma 2 (AIM2) inflammasomes. For activation of NLRC4 inflammasome, BMDM were treated with LPS (100 ng/ml) for 3 hours. Subsequently, the culture medium was removed and replaced with a serum-free medium containing compound 4 (1 μm for 30 minutes), finally the cells were transfected with flagellin (100 ng/ml) by S. typhimurium for 2 hours. The supernatant was tested by ELISA. […] The effect of the same compounds was examined on the non-NLR AIM2 inflammasome by transfecting BMDM with the dsDNS analogue Poly (dA:dT).

B16-F10 melanoma cells = test: B16-F10 cancer cell proliferation (crystal violet growth curve); type: cell-based; conditions: 1 μM, 5 days
Protocol: B16-F10 cells were treated with selected inhibitors (1 μM) then were counted with a Burker chamber and plated in five sets of 4 wells of a 24-well plate. Starting from the following day (day 1) 1 set of wells (at days 2, 3, 4 and 5) was washed once with PBS, fixed in 4% formaldehyde solution for 15 min at room temperature, and then kept in PBS at 4° C. At day 5, all the wells were stained with crystal violet for 20 minutes, lysed with 10% acetic acid, then the absorbance was read at 595 nm.

NLRC4 inflammasome = target: T2, NLRC4 inflammasome (Mus musculus, UniProt Q3UP24); test: NLRC4 inflammasome activation in LPS-primed BMDM transfected with flagellin of S. typhimurium (IL-1β ELISA); type: cell-based; conditions: LPS 100 ng/ml 3 hours, compound 1 μm 30 minutes, flagellin 100 ng/ml 2 hours
T2 construct: endogenous in cells; host or cells: mouse BMDM, LPS-primed, transfected with S. typhimurium flagellin
T2 sequence (Q3UP24 whole entry): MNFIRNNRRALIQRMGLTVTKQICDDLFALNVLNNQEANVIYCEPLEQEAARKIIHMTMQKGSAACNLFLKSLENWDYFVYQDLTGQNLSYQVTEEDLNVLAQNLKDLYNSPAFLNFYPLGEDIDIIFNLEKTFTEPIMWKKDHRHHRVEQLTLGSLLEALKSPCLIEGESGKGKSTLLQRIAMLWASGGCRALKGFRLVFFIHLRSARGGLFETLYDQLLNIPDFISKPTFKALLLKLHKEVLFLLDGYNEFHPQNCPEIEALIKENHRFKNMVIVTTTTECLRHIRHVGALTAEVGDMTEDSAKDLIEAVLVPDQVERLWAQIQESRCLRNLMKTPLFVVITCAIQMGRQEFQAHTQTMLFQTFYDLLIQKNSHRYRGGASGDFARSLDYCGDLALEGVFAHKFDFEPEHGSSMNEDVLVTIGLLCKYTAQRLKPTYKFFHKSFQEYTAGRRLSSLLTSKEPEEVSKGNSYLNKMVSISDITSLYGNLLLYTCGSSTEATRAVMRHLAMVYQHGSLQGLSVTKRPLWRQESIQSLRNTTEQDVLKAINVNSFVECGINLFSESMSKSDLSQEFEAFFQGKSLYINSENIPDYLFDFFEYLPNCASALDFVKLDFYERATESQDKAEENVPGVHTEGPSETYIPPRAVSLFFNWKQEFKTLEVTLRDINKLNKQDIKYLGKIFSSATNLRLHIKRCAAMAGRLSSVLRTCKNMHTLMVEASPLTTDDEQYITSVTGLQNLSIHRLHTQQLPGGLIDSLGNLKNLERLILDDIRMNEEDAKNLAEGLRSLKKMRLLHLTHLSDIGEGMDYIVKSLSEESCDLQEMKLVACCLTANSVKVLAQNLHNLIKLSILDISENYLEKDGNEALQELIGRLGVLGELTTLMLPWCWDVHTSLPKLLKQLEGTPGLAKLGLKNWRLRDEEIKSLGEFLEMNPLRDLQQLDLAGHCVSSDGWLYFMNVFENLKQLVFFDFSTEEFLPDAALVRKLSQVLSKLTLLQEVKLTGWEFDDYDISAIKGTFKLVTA
Protocol: as §2
The selectivity of compounds 6c and 10 of Formula (III) as inhibitors of NLRP3 was then evaluated with respect to NLRC4 inflammasome. For activation of NLRC4 inflammasome, BMDM were treated with LPS (100 ng/ml) for 3 hours. Subsequently the culture medium was removed and replaced with a serum-free medium containing […] (1 μm for 30 minutes), finally the cells were transfected with flagellin (100 ng/ml) by S. typhimurium for 2 hours. The supernatant was tested by ELISA.

THP-1 cells = test: RealTime-Glo MT Cell Viability assay on THP-1 cells; type: cell-based, human; conditions: 1 μM, 48 hours
Protocol: (§3) Cell viability was evaluated on THP-1 cells using realtime-Glo” MT Cell Viability Assay (Promega Italia, MI). Briefly, the cells were seeded in a 96 multiwell (10×10^4 cells/well), treated with the selected compound of Formula (II), and incubated for 48 hours. After treatment, the cells were incubated for 10 minutes in the incubator with the realtime-Glo” reagent following protocol. The luminescence was measured every 12 hours in the Glomax Multi Detection System Promega. The luminescence signal correlates with the number of metabolically active cells.
as §3, with “compound,” for “compound of Formula (II),”, “cells. The results represent the mean luminescence values (RLU)±SEM.” for “cells.”

[2] = clinical development, phase II; cited from earlier work
[3] = system: pancreatic adenocarcinoma; conditions: cited from earlier work
[4] = preclinical studies; cited from earlier work
chronic myeloid leukemia = conditions: cited from earlier work
[5] = system: head and neck squamous cell carcinoma; conditions: head and neck squamous cell carcinoma mouse model; cited from earlier work

SMILES: Nc1ccc(S(=O)(=O)N2Cc3ccccc3C[C@H]2C(=O)Nc2c3c(cc4c2CCC4)CCC3)cc1 [Compound 4 of Formula (II), (S)-2-((4-aminophenyl)sulfonyl)-N-(1,2,3,5,6,7-hexahydro-s-indacen-4-yl)-1,2,3,4-tetrahydroisoquinoline-3-carboxamide]
- Reduction of tumor mass vs vehicle (DMSO) [1]: about 50%
- Growth of B16-F10 cells co-cultured with treated peritoneal macrophages (B16-F10 cells): treated with the vehicle alone grew more than B16-F10 cells in contact with peritoneal macrophages treated with compound 4
- IL-1β secretion on AIM2 inflammasome activation (AIM2 inflammasome): A reduction in the amount of IL-1β secretion was not observe
- Direct effect on cell proliferation of B16-F10 melanoma cells (B16-F10 melanoma cells): no direct effect
- Effect on activation of NLRC4 inflammasome triggered by flagellin S. typhimurium (NLRC4 inflammasome): no effect
- Cytotoxicity / cell viability of THP-1 cells (THP-1 cells): no cytotoxicity

SMILES: CC(C)(O)c1coc(S(=O)(=O)NC(=O)Nc2c3c(cc4c2CCC4)CCC3)c1 [MCC950, N-((1,2,3,5,6,7-hexahydro-s-indacen-4-yl)carbamoyl)-4-(2-hydroxypropan-2-yl)furan-2-sulfonamide]
- Serum liver enzyme levels / hepatotoxicity [2]: hepatotoxicity problems; also recorded: elevation of serum liver enzyme levels
- Cell proliferation [3]: suppress cell proliferation
- Oral bioavailability [4]: good oral bioavailability
- Cell proliferation (chronic myeloid leukemia): suppress cell proliferation
- Tumor growth [5]: delay tumor growth
